Our source for the melting point values is patent US7235554B2, “3-heteroaryl-3,5-dihydro-4-oxo-4H-pyridazino[4,5-b] indole-1-acetamide derivatives, preparation and use thereof in medicaments” (Sanofi-Aventis, priority 2002, dated 2007).

As a reminder, the melting point is the temperature, or range, at which the solid turns liquid. Regarding `CN(C)C(=O)Cc1nn(-c2cccnc2)c(=O)c2c1c1ccc(F)cc1n2C.Cl`, the melting point lay in the range of 244 to 250 °C.

Compound `CN(C)C(=O)Cc1nn(-c2ccncc2)c(=O)c2c1c1ccc(F)cc1n2C.Cl` came in with a melting point of 267 to 270 °C.

`CN(C)C(=O)Cc1nn(-c2cccnc2)c(=O)c2c1c1ccc(Cl)cc1n2C.Cl` gave a melting point of 250 to 252 °C. As for `CN(C)C(=O)Cc1nn(-c2ccncc2)c(=O)c2c1c1ccc(Cl)cc1n2C.Cl`, the figure is 275 to 279 °C; as for `CN(C)C(=O)Cc1nn(-c2ccccn2)c(=O)c2c1c1ccc(F)cc1n2C` [Compound 1, 7-fluoro-N,N,5-trimethyl-4-oxo-3-(pyridin-2-yl)-3,5-dihydro-4H-pyridazino[4,5-b]indole-1-acetamide], 222 to 223 °C; as for `CN(C)C(=O)Cc1nn(-c2ccccn2)c(=O)c2c1c1ccc(Cl)cc1n2C` [Compound 4, 7-chloro-N,N,5-trimethyl-4-oxo-3-(pyridin-2-yl)-3,5-dihydro-4H-pyridazino[4,5-b]indole-1-acetamide], 183 to 184 °C. In the case of `CN(C)C(=O)Cc1nn(-c2cccnc2)c(=O)c2c1c1ccc(Cl)cc1n2C` [Compound 5, 7-chloro-N,N,5-trimethyl-4-oxo-3-(pyridin-3-yl)-3,5-dihydro-4H-pyridazino[4,5-b]indole-1-acetamide] it was 255 to 256 °C.

The compound `Cc1ccc(-n2nc(CC(=O)N(C)C)c3c4ccc(Cl)cc4n(C)c3c2=O)cn1` [Compound 8, 7-chloro-N,N,5-trimethyl-4-oxo-3-(6-methylpyridin-3-yl)-3,5-dihydro-4H-pyridazino[4,5-b]indole-1-acetamide] registered a melting point of 253 to 255 °C.

With `CCN(CC)C(=O)Cc1nn(-c2cccnc2)c(=O)c2c1c1ccc(Cl)cc1n2C` [Compound 9, 7-chloro-N,N-diethyl-5-methyl-4-oxo-3-(pyridin-3-yl)-3,5-dihydro-4H-pyridazino[4,5-b]indole-1-acetamide], the melting point was 199 to 200 °C.
